Data reported in ChEMBL document CHEMBL1133987, “Broad spectrum antiprotozoal agents that inhibit histone deacetylase: structure-activity relationships of apicidin. Part 1” (Bioorg Med Chem Lett, 2001).
In brackets after ≈: the same amount, converted by molar mass.

Experiments:
Eimeria tenella = assay: Antiprotozoal activity (functional assay) using […] bovine kidney (MDBK) host cells infected with Eimeria tenella
Histone deacetylase = assay: Inhibitory activity against histone deacetylase (HDAC) derived from partially purified extracts of human HeLa cells
Plasmodium falciparum = assay: In vitro antiprotozoal activity against Plasmodium falciparum 3D7 infected erythrocytes […]; format: functional, organism-based
HeLa = assay: Concentration for 50% inhibition of cell growth of human HeLa cells or foreskin fibroblasts in In vitro anti-proliferative functional assay

C=C(CC)CCCCC[C@@H]1NC(=O)[C@H]2CCCCN2CC(=O)[C@H]([C@@H](C)CC)NC(=O)[C@H](Cc2cn(OC)c3ccccc23)NC1=O
MIC (Eimeria tenella): 1 µg/mL (≈ 1.57 µM) | IC50 (Histone deacetylase): 1450 nM | IC50 (Plasmodium falciparum): 1 µg/mL (≈ 1.57 µM)

CCCCCCCC[C@@H]1NC(=O)[C@H]2CCCCN2CC(=O)[C@H]([C@@H](C)CC)NC(=O)[C@H](Cc2cn(OC)c3ccccc23)NC1=O
MIC (Eimeria tenella): 1 µg/mL (≈ 1.6 µM) | IC50 (Histone deacetylase): 61 nM | IC50 (Plasmodium falciparum): 0.61 µg/mL (≈ 0.978 µM)

CCC(N)CCCCC[C@@H]1NC(=O)[C@H]2CCCCN2CC(=O)[C@H]([C@@H](C)CC)NC(=O)[C@H](Cc2cn(OC)c3ccccc23)NC1=O (stereo partly drawn)
MIC (Eimeria tenella): > 1 µg/mL | IC50 (Histone deacetylase): 144 nM | IC50 (Plasmodium falciparum): > 1 µg/mL

CC[C@H](C)[C@@H]1NC(=O)[C@H](Cc2cn(OC)c3ccccc23)NC(=O)[C@H](CCCCCP(=O)(OC)OC)NC(=O)[C@H]2CCCCN2CC1=O
MIC (Eimeria tenella): > 1 µg/mL | IC50 (Histone deacetylase): 450 nM | IC50 (Plasmodium falciparum): 0.85 µg/mL (≈ 1.23 µM)

CCC(=O)CCCCC[C@@H]1NC(=O)[C@H]2CCCCN2CC(=O)[C@H]([C@@H](C)CC)NC(=O)[C@H](Cc2cn(OC)c3ccccc23)NC1=O
MIC (Eimeria tenella): 0.094 µg/mL (≈ 0.147 µM) | IC50 (Histone deacetylase): 1 nM | IC50 (Plasmodium falciparum): 0.058 µg/mL (≈ 0.0909 µM)

CC[C@H](C)[C@@H]1NC(=O)[C@H](Cc2cn(OC)c3ccccc23)NC(=O)[C@H](CCCCCC(=O)NO)NC(=O)[C@H]2CCCCN2CC1=O
MIC (Eimeria tenella): > 0.5 µg/mL | IC50 (Plasmodium falciparum): 0.00024 µg/mL (≈ 0.000375 µM)

CC[C@H](C)[C@@H]1NC(=O)[C@H](Cc2cn(OC)c3ccccc23)NC(=O)[C@H](CCCCCC(=O)C2CO2)NC(=O)[C@H]2CCCCN2CC1=O (stereo partly drawn)
MIC (Eimeria tenella): 0.003 µg/mL (≈ 0.0046 µM) | IC50 (Histone deacetylase): < 0.1 nM | IC50 (Plasmodium falciparum): < 0.015 µg/mL

CC[C@H](C)[C@@H]1NC(=O)[C@H](Cc2cn(OC)c3ccccc23)NC(=O)[C@H](CCCCCC2(CC)CO2)NC(=O)[C@H]2CCCCN2CC1=O (stereo partly drawn)
MIC (Eimeria tenella): > 1 µg/mL | IC50 (Histone deacetylase): 60 nM | IC50 (Plasmodium falciparum): 1 µg/mL (≈ 1.53 µM)

CCC(=O)CCCCC[C@@H]1/N=C(\S)[C@H]2CCCCN2CC(=O)[C@H]([C@@H](C)CC)/N=C(\S)[C@H](Cc2cn(OC)c3ccccc23)NC1=O
MIC (Eimeria tenella): 0.125 µg/mL (≈ 0.187 µM) | AP50 (HeLa): 1000 ng/mL | IC50 (Plasmodium falciparum): 0.1 µg/mL (≈ 0.149 µM)

CCC(=O)CCCCC[C@@H]1NC(=O)[C@H]2CCCCN2CC(=O)[C@H]([C@@H](C)CC)/N=C(\S)[C@H](Cc2cn(OC)c3ccccc23)N=C1S
MIC (Eimeria tenella): 0.125 µg/mL (≈ 0.187 µM) | AP50 (HeLa): 1000 ng/mL | IC50 (Plasmodium falciparum): 0.1 µg/mL (≈ 0.149 µM)

CC[C@H](C)[C@@H]1NC(=O)[C@H](Cc2cn(OC)c3ccccc23)NC(=O)[C@H](CCCCCC(=O)OC)NC(=O)[C@H]2CCCCN2CC1=O
MIC (Eimeria tenella): > 1 µg/mL | IC50 (Histone deacetylase): 0.4 nM | IC50 (Plasmodium falciparum): 0.21 µg/mL (≈ 0.328 µM)

CC[C@H](C)[C@@H]1NC(=O)[C@H](Cc2cn(OC)c3ccccc23)NC(=O)[C@H](CCCCNC(C)=O)NC(=O)[C@H]2CCCCN2CC1=O
MIC (Eimeria tenella): > 1 µg/mL | IC50 (Histone deacetylase): 2000 nM | IC50 (Plasmodium falciparum): 1 µg/mL (≈ 1.6 µM)

CC[C@H](C)[C@@H]1NC(=O)[C@H](Cc2cn(OC)c3ccccc23)NC(=O)[C@H](CCCCCP(=O)([O-])O)NC(=O)[C@H]2CCCCN2CC1=O.[K+]
MIC (Eimeria tenella): > 1 µg/mL | IC50 (Histone deacetylase): 180 nM | IC50 (Plasmodium falciparum): > 1 µg/mL

CC[C@H](C)[C@@H]1NC(=O)[C@H](Cc2cn(OC)c3ccccc23)NC(=O)[C@H](CCCCCCC(=O)OC)NC(=O)[C@H]2CCCCN2CC1=O
MIC (Eimeria tenella): > 1 µg/mL | IC50 (Histone deacetylase): 7 nM | IC50 (Plasmodium falciparum): 0.5 µg/mL (≈ 0.765 µM)

CCC(=O)C(=O)CCCC[C@@H]1NC(=O)[C@H]2CCCCN2CC(=O)[C@H]([C@@H](C)CC)NC(=O)[C@H](Cc2cn(OC)c3ccccc23)NC1=O
MIC (Eimeria tenella): 0.313 µg/mL (≈ 0.48 µM) | IC50 (Histone deacetylase): 18 nM | IC50 (Plasmodium falciparum): 0.7 µg/mL (≈ 1.07 µM)

CC[C@H](C)[C@@H]1NC(=O)[C@H](Cc2cn(OC)c3ccccc23)NC(=O)[C@H](CCCCCCC(=O)O)NC(=O)[C@H]2CCCCN2CC1=O
MIC (Eimeria tenella): > 1 µg/mL | IC50 (Histone deacetylase): 848 nM | IC50 (Plasmodium falciparum): > 1 µg/mL

CC[C@H](C)[C@@H]1NC(=O)[C@H](Cc2cn(OC)c3ccccc23)NC(=O)[C@H](CCCCCC(=O)C(C)O)NC(=O)[C@H]2CCCCN2CC1=O (stereo partly drawn)
MIC (Eimeria tenella): 0.008 µg/mL (≈ 0.0122 µM) | IC50 (Histone deacetylase): 0.3 nM | IC50 (Plasmodium falciparum): 0.022 µg/mL (≈ 0.0336 µM)

CC[C@H](C)[C@@H]1NC(=O)[C@H](Cc2cn(OC)c3ccccc23)NC(=O)[C@H](CCCCCC(=O)C(C)F)NC(=O)[C@H]2CCCCN2CC1=O (stereo partly drawn)
MIC (Eimeria tenella): 0.062 µg/mL (≈ 0.0945 µM) | IC50 (Histone deacetylase): 1 nM | IC50 (Plasmodium falciparum): 0.028 µg/mL (≈ 0.0427 µM)

CC[C@H](C)[C@@H]1NC(=O)[C@H](Cc2cn(OC)c3ccccc23)NC(=O)[C@H](CCCCCC(=O)C(C)=O)NC(=O)[C@H]2CCCCN2CC1=O
MIC (Eimeria tenella): 0.25 µg/mL (≈ 0.384 µM) | IC50 (Histone deacetylase): 30 nM | IC50 (Plasmodium falciparum): 0.9 µg/mL (≈ 1.38 µM)

CCC(=O)C(O)CCCC[C@@H]1NC(=O)[C@H]2CCCCN2CC(=O)[C@H]([C@@H](C)CC)NC(=O)[C@H](Cc2cn(OC)c3ccccc23)NC1=O (stereo partly drawn)
MIC (Eimeria tenella): 1 µg/mL (≈ 1.53 µM) | IC50 (Histone deacetylase): 39 nM

CCC(=O)C(F)CCCC[C@@H]1NC(=O)[C@H]2CCCCN2CC(=O)[C@H]([C@@H](C)CC)NC(=O)[C@H](Cc2cn(OC)c3ccccc23)NC1=O (stereo partly drawn)
MIC (Eimeria tenella): 0.313 µg/mL (≈ 0.477 µM) | IC50 (Histone deacetylase): 110 nM | IC50 (Plasmodium falciparum): 0.7 µg/mL (≈ 1.07 µM)

CC[C@H](C)[C@@H]1NC(=O)[C@H](Cc2cn(OC)c3ccccc23)NC(=O)[C@H](CCCCCC(=O)O)NC(=O)[C@H]2CCCCN2CC1=O
MIC (Eimeria tenella): 1 µg/mL (≈ 1.6 µM) | IC50 (Histone deacetylase): 15 nM | IC50 (Plasmodium falciparum): > 1 µg/mL

CC[C@H](C)[C@@H]1NC(=O)[C@H](Cc2cn(OC)c3ccccc23)NC(=O)[C@H](CCCCC(=O)O)NC(=O)[C@H]2CCCCN2CC1=O
MIC (Eimeria tenella): > 1 µg/mL | IC50 (Histone deacetylase): 282 nM

CC[C@H](C)[C@@H]1NC(=O)[C@H](Cc2cn(OC)c3ccccc23)NC(=O)[C@H](CCCCC(=O)OC)NC(=O)[C@H]2CCCCN2CC1=O
MIC (Eimeria tenella): > 1 µg/mL | IC50 (Histone deacetylase): 74 nM | IC50 (Plasmodium falciparum): > 1 µg/mL

CC[C@H](C)[C@@H]1NC(=O)[C@H](Cc2cn(OC)c3ccccc23)NC(=O)[C@H](CCCCCC=O)NC(=O)[C@H]2CCCCN2CC1=O
MIC (Eimeria tenella): 1 µg/mL (≈ 1.64 µM) | IC50 (Histone deacetylase): 6 nM | IC50 (Plasmodium falciparum): 0.5 µg/mL (≈ 0.82 µM)

CC[C@H](C)[C@@H]1NC(=O)[C@H](Cc2cn(OC)c3ccccc23)NC(=O)[C@H](CCCCCC(C)=O)NC(=O)[C@H]2CCCCN2CC1=O
MIC (Eimeria tenella): 0.125 µg/mL (≈ 0.2 µM) | IC50 (Histone deacetylase): 2 nM | IC50 (Plasmodium falciparum): 0.055 µg/mL (≈ 0.0882 µM)

CC[C@H](C)[C@@H]1NC(=O)[C@H](Cc2cn(OC)c3ccccc23)NC(=O)[C@H](CCCCSC(C)=O)NC(=O)[C@H]2CCCCN2CC1=O
MIC (Eimeria tenella): > 1 µg/mL | IC50 (Histone deacetylase): 110 nM | IC50 (Plasmodium falciparum): > 1 µg/mL

CC[C@H](C)[C@@H]1NC(=O)[C@H](Cc2cn(OC)c3ccccc23)NC(=O)[C@H](CCCCCSC)NC(=O)[C@H]2CCCCN2CC1=O
MIC (Eimeria tenella): > 1 µg/mL | IC50 (Histone deacetylase): 326 nM | IC50 (Plasmodium falciparum): > 1 µg/mL

CCC(=O)C1OC1CCC[C@@H]1NC(=O)[C@H]2CCCCN2CC(=O)[C@H]([C@@H](C)CC)NC(=O)[C@H](Cc2cn(OC)c3ccccc23)NC1=O (stereo partly drawn)
MIC (Eimeria tenella): 0.15 µg/mL (≈ 0.23 µM) | IC50 (Histone deacetylase): 5 nM | IC50 (Plasmodium falciparum): 0.35 µg/mL (≈ 0.537 µM)

CC[C@H](C)[C@@H]1NC(=O)[C@H](Cc2cn(OC)c3ccccc23)NC(=O)[C@H](CCCCCC(=O)c2ccccc2)NC(=O)[C@H]2CCCCN2CC1=O
MIC (Eimeria tenella): 1 µg/mL (≈ 1.46 µM) | IC50 (Histone deacetylase): 700 nM | IC50 (Plasmodium falciparum): 0.35 µg/mL (≈ 0.51 µM)

CCC(CCCCC[C@@H]1NC(=O)[C@H]2CCCCN2CC(=O)[C@H]([C@@H](C)CC)NC(=O)[C@H](Cc2cn(OC)c3ccccc23)NC1=O)SC(C)=O (stereo partly drawn)
MIC (Eimeria tenella): 0.25 µg/mL (≈ 0.358 µM) | IC50 (Plasmodium falciparum): 0.59 µg/mL (≈ 0.845 µM)

CC[C@H](C)[C@@H]1NC(=O)[C@H](Cc2cn(OC)c3ccccc23)NC(=O)[C@H](CCCCCSC(C)=O)NC(=O)[C@H]2CCCCN2CC1=O
MIC (Eimeria tenella): 1 µg/mL (≈ 1.52 µM) | IC50 (Histone deacetylase): 3 nM | IC50 (Plasmodium falciparum): 0.9 µg/mL (≈ 1.37 µM)

CC[C@H](C)[C@@H]1NC(=O)[C@H](Cc2cn(OC)c3ccccc23)NC(=O)[C@H](CCCCCC(=O)C(C)C)NC(=O)[C@H]2CCCCN2CC1=O
MIC (Eimeria tenella): 0.75 µg/mL (≈ 1.15 µM) | IC50 (Histone deacetylase): 235 nM | IC50 (Plasmodium falciparum): 0.5 µg/mL (≈ 0.767 µM)

CCCC(=O)CCCCC[C@@H]1NC(=O)[C@H]2CCCCN2CC(=O)[C@H]([C@@H](C)CC)NC(=O)[C@H](Cc2cn(OC)c3ccccc23)NC1=O
MIC (Eimeria tenella): 0.125 µg/mL (≈ 0.192 µM) | IC50 (Histone deacetylase): 1 nM | IC50 (Plasmodium falciparum): 0.15 µg/mL (≈ 0.23 µM)
